Assay results taken from patent US20200155481A1, “INTRAMUSCULAR ATOVAQUONE FOR MALARIA PROPHYLAXIS” (THE JOHNS HOPKINS UNIVERSITY, priority 2017, published 2020).

What was measured:
in vivo = assay: in vivo; design: species or system mice; conditions: male, C57BL6, mouse, im, 200 mg/kg
Experimental: All dosing materials were constituted just before use. Mepron suspension (150 mg/mL atovaquone) was the starting material. Pluronic F-68 (10%) was used to dilute Mepron to required dosing concentration (≤100 mg/mL), or as vehicle control. For the washed drug preparation, atovaquone was pelleted from diluted Mepron (50 mg/mL, 13,000×g, 10 min) and the supernatant was replaced with equal volume 0.9% NaCl. Washing was repeated three times prior to final resuspension of excipient-depleted atovaquone at 50 mg/mL in 0.9% NaCl for dosing. C57BL6 male mice (˜20 g; 3-5 per group) were injected intramuscularly (biceps femoris; 23-gauge needle, 100 μl Hamilton syringe) with diluted or washed Mepron (40 μl total volume, 20 μl per limb). Oral Mepron was administered by gavage. At predetermined post-dose intervals, animals were challenged with P. berghei ANKA by infusion of 5,000 sporozoites into a tail vein. Starting 4 d post-challenge then weekly thereafter for 42 d, tail snip blood samples were examined for parasites via Giemsa-stained thin smears. Each experiment included an untreated cohort to validate the challenge. Efficacy outcomes were binary. The appearance of parasitemia in any animal in a cohort was designated a dosing failure. […]

[1] = system: P. berghei ANKA sporozoites; assay: murine Plasmodium berghei sporozoite challenge model (prophylaxis efficacy); format: in vivo; conditions: intramuscular, dose-dependent; mice; FIG. 2
Experimental: Four- to six-day old Anopheles stephensi adult mosquitoes fasted for 6 h were fed on Swiss Webster mice infected with P. berghei (ANKA 2.34 strain). Fed mosquitoes were maintained for 18 d (19° C., 80% relative humidity), when salivary glands were harvested into RPMI medium and disrupted by several passages through a 0.5 in 28-gauge needle to release sporozoites. Parasites were counted by hemocytometer and diluted to 25,000 mL^−1 RPMI. C57BL6 mice were challenged by intravenous infusion of 5,000 sporozoites in 200 μL RPMI.
All dosing materials were constituted just before use. Mepron suspension (150 mg/mL atovaquone) was the starting material. Pluronic F-68 (10%) was used to dilute Mepron to required dosing concentration (≤100 mg/mL), or as vehicle control. For the washed drug preparation, atovaquone was pelleted from diluted Mepron (50 mg/mL, 13,000×g, 10 min) and the supernatant was replaced with equal volume 0.9% NaCl. Washing was repeated three times prior to final resuspension of excipient-depleted atovaquone at 50 mg/mL in 0.9% NaCl for dosing. C57BL6 male mice (˜20 g; 3-5 per group) were injected intramuscularly (biceps femoris; 23-gauge needle, 100 μl Hamilton syringe) with diluted or washed Mepron (40 μl total volume, 20 μl per limb). Oral Mepron was administered by gavage. […]

[2] = cited from earlier work

half-life (in vivo): 182 h
SMILES: O=C1C(O)=C([C@H]2CC[C@H](c3ccc(Cl)cc3)CC2)C(=O)c2ccccc21 [atovaquone]
successful malaria prophylaxis (parasite-free), days post-challenge [1]: up to 42 days
solubility in water [2]: practically insoluble
